Assay results published in US9206173B2, “Heterocyclic compounds for the treatment of stress-related conditions” (OTSUKA PHARMACEUTICAL CO., LTD., priority 2009, dated 2015).
Structures can show the parent of a compound that is named as a salt. Where two headings read alike, the source gives them in different places.

Tests used:
[1] = biological target: T1, human GPR10 (Homo sapiens (Human), UniProt P49683); experiment: Inhibitory activity on binding of [3H]-PrRP to GPR10 (HEK 293 cell membrane fraction)
T1 sequence (P49683 whole entry): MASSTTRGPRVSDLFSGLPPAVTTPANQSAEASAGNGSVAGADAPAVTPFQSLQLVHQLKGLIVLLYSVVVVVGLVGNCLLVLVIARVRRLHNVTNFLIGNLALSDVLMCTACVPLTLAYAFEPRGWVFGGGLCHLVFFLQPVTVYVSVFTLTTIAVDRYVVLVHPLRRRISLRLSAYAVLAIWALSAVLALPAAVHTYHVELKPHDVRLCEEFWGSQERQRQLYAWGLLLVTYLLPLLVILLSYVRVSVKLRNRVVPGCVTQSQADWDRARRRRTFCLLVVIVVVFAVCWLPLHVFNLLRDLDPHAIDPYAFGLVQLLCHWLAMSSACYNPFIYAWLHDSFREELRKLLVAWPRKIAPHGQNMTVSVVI
Method: Inhibitory Activity on Binding of [^3H]-PrRP to GPR10
Human GPR10 receptor expressing human embryonic kidney cells, HEK 293 cells, were cultured in Dulbecco's Modified Eagle's medium supplemented with 10% fetal bovine serum and 1% penicilline-streptmycin at 37° C., in 5% carbon dioxide gas conditions. The medium was removed and the cells were recovered in a phosphate buffer to prepare a cell suspension. The cell suspension was homogenated on ice by an ultrasonic cell homogenizer (Microson™ type XL200) and centrifuged at 40,000 g for 10 minutes at 4° C. After the supernatant was discarded, Buffer A (20 mM HEPES, 10 mM EDTA, 1 μl/ml protease inhibiting cocktail, pH 7.4) was added to the pellet. The pellet was suspended by the ultrasonic cell homogenizer, then the suspension was centrifuged at 40,000 g, for 10 minutes at 4° C. After this operation was repeated once again, the supernatant was discarded, Buffer B (20 mM HEPES, 0.1 mM EDTA, pH 7.4) was added to the pellet, and the pellet was suspended by the ultrasonic homogenizer. This was stored at a freezer of −80° C. as a cell membrane fraction until use in a binding test.
To each well of a 96-well plate, 150 μl of assay buffer (20 mM HEPES, 10 mM EDTA, 1 μl/ml protease inhibiting agent cocktail, pH 7.4), 20 μl of cell membrane fraction, 10 μl of test compound and [^3H]-PrRP (final concentration 1 nM) were added and incubated at room temperature for 90 minutes. After completion of the reaction, using a cell harvester, the cell-membrane fraction sample product was filtered under aspiration by a glass fiber filter plate (Unifilter; GF/B) previously treated with 0.5% polyethylene imine. The filter was washed with a 50 mM Tris hydrochloric acid buffer (pH 7.4) three times. After the filter was dried in a dryer (50° C.) for about 3 hours, 40 μl of liquid scintillation cocktail (MicroScint-O) was added to each well and radio activity was measured by a scintillation counter (Packard Topcount). The radio activity in the presence of an excessive amount of non-labeled PrRP (final concentration: 100 nM) was regarded as non-specific binding.
The binding inhibition rate was calculated based on calculating formula: 100−(radio activity when a compound is added−radio activity of non-specific binding)÷(radio activity when a solvent is added−radio activity of non-specific binding)×100.
An IC50 value was calculated based on the concentration dependent reaction using a non-linear analysis program and a Ki value was calculated using Cheng-Prussoff formula.

[2] = biological target: T1, human GPR10; experiment: Antagonistic activity on PrRP-induced intracellular calcium mobilization in human GPR10-expressing HEK293 cells; format: cell-based; settings: PrRP 1 nM-induced intracellular calcium mobilization, Fluo-8
Method: Pharmacological Test 2 Antagonistic Activity on GPR10 Using Human GPR10-Expressing HEK293 Cells.
Antagonistic activity of test compounds on PrRP-induced intracellular calcium mobilization was evaluated using GPR10-expressing HEK293 cells.
HEK293 cells expressing human GPR10 were maintained in Dulbecco's Modified Eagles' medium supplemented with 10% fetal bovine serum, 1% penicillin-streptomycin and 20 mM HEPES at 37° C. in a 5% CO2 incubator. GPR10-expressing HEK293 cells were placed in poly-D-lysine coated 96-well culture plates and cultured for 18-24 hr before the test at a density of 3×10^4 cells/well. […] The cells were incubated with test compounds for 15 min at room temperature, and then PrRP (the final concentration, 1 nM) was added into the medium. The changes in intracellular calcium-dependent fluorescence were monitored using a fluorescence imaging plate reader (FDSS3000, Hamamatsu Photonics K.K.). Fluo-8 fluorescence was measured with excitation at 490 nm and emission at 520 nm. The calcium-dependent fluorescence intensity was calculated by subtracting basal intensity (average intensity for 30 sec before agonist stimulation) from peak intensity for 60 sec after PrRP-stimulation, and then IC50 values were determined by nonlinear curve-fitting program, GraphPad Prism 5.

[3] = [3H]-PrRP 1 nM, human GPR10-expressing HEK 293 cell membrane fraction, Ki from IC50 by Cheng-Prussoff formula

Ki [1]	Compound	Ki [1, 3]	IC50 [2]
	CCOn1c(N[C@H](C)c2ccc(C(F)(F)F)cc2)nc2c(c1=O)CN(C(=O)c1ccc(Cl)cc1)CC2 [Example 86]	25 nM	3710 nM
	CCOn1c(N[C@H](C)c2ccc(C(F)(F)F)cc2)nc2c(c1=O)CN(C(=O)c1ccc(C#N)cc1)CC2 [Example 92]	11 nM	156 nM
	CCOn1c(N[C@H](C)c2ccc(C(F)(F)F)cc2)nc2c(c1=O)CN(C(=O)c1ccc(C#N)cc1F)CC2 [Example 95]	5 nM	227 nM
	CCOn1c(N[C@H](C)c2ccc(C(F)(F)F)cc2)nc2c(c1=O)CN(C(=O)c1ccc(-c3cnco3)cc1)CC2 [Example 104]	20 nM	158 nM
	CCOn1c(N[C@H](C)c2ccc(C(F)(F)F)cc2)nc2c(c1=O)CN(C(=O)c1cc3cccnc3s1)CC2 [Example 121]	17 nM	1680 nM
	C[C@@H](Nc1nc2c(c(=O)n1N1CCCC1)CN(C(=O)c1ccc(C#N)cc1)CC2)c1ccc(C(F)(F)F)cc1 [Example 163]	10 nM	648 nM
	C[C@@H](Nc1nc2c(c(=O)n1N1CCCC1)CN(C(=O)c1ccc(C#N)cc1F)CC2)c1ccc(C(F)(F)F)cc1 [Example 166]	6 nM	298 nM
	COn1c(N[C@@H](C)c2ccc(C(F)(F)F)cc2)nc2c(c1=O)CN(C(=O)COc1ccc(Cl)cc1)CC2 [Example 2389, 6-[2-(4-chlorophenoxy)acetyl]-3-methoxy-2-[(S)-1-(4-trifluoromethylphenyl)ethylamino]-5,6,7,8-tetrahydro-3H-pyrido[4,3-d]pyrimidin-4-one]	8 nM	678 nM
	COn1c(N[C@@H](C)c2ccc(C(F)(F)F)cc2)nc2c(c1=O)CN(C(=O)CSc1ccc(Cl)cc1)CC2 [Example 2390, 6-[2-(4-chlorophenylsulfanyl)acetyl]-3-methoxy-2-[(S)-1-(4-trifluoromethylphenyl)ethylamino]-5,6,7,8-tetrahydro-3H-pyrido[4,3-d]pyrimidin-4-one]	8 nM	1140 nM
	COn1c(N[C@@H](C)c2ccc(C(F)(F)F)cc2)nc2c(c1=O)CN(C(=O)CCc1ccc(Cl)cc1)CC2 [Example 2391, 6-[3-(4-chlorophenyl)propionyl]-3-methoxy-2-[(S)-1-(4-trifluoromethylphenyl)ethylamino]-5,6,7,8-tetrahydro-3H-pyrido[4,3-d]pyrimidin-4-one]	134 nM	3900 nM
12 nM	COn1c(N[C@@H](C)c2ccc(C(F)(F)F)cc2)nc2c(c1=O)CN(C(=O)/C=C/c1ccc(Cl)cc1)CC2 [Example 2392, 6-[(E)-3-(4-chlorophenyl)acryloyl]-3-methoxy-2-[(S)-1-(4-trifluoromethylphenyl)ethylamino]-5,6,7,8-tetrahydro-3H-pyrido[4,3-d]pyrimidin-4-one]		5790 nM
	CC#CCn1c(N[C@@H](C)c2ccc(C(F)(F)F)cc2)nc2c(c1=O)CN(C(=O)c1ccc(-n3ccnc3)cc1)CC2 [Example 2402, 3-(2-butynyl)-6-(4-imidazol-1-ylbenzoyl)-2-[(S)-1-(4-trifluoromethylphenyl)ethylamino]-5,6,7,8-tetrahydro-3H-pyrido[4,3-d]pyrimidin-4-one dihydrochloride]	6 nM	99 nM
	COn1c(N[C@@H](C)c2ccc(C(F)(F)F)cc2)nc2c(c1=O)CN(C(=O)c1ccc(C)s1)CC2 [Example 2404, 3-methoxy-6-(5-methyl-thiophene-2-carbonyl)-2-[(S)-1-(4-trifluoromethylphenyl)ethylamino]-5,6,7,8-tetrahydro-3H-pyrido[4,3-d]pyrimidin-4-one]	10 nM	1130 nM
	COn1c(N[C@@H](C)c2ccc(C(F)(F)F)cc2)nc2c(c1=O)CN(C(=O)c1ccc(Cl)s1)CC2 [Example 2405, 6-(5-chlorothiophene-2-carbonyl)-3-methoxy-2-[(S)-1-(4-trifluoromethylphenyl)ethylamino]-5,6,7,8-tetrahydro-3H-pyrido[4,3-d]pyrimidin-4-one]	15 nM	8790 nM
	CC#CCn1c(N[C@@H](C)c2ccc(C(F)(F)F)cc2)nc2c(c1=O)CN(C(=O)c1ccc(C#N)cc1F)CC2 [Example 2406, 4-{3-(2-butynyl)-4-oxo-2-[(S)-1-(4-trifluoromethylphenyl)ethylamino]-3,5,7,8-tetrahydro-4H-pyrido[4,3-d]pyrimidine-6-carbonyl}-3-fluorobenzonitrile hydrochloride]	2 nM	78 nM
	CC#CCn1c(N[C@@H](C)c2ccc(C(F)(F)F)cc2)nc2c(c1=O)CN(C(=O)c1ccc(C#N)cc1)CC2 [Example 2407, 4-{3-(2-butynyl)-4-oxo-2-[(S)-1-(4-trifluoromethylphenyl)ethylamino]-3,5,7,8-tetrahydro-4H-pyrido[4,3-d]pyrimidine-6-carbonyl}benzonitrile hydrochloride]	8 nM	207 nM
	CC#CCn1c(N[C@@H](C)c2ccc(C(F)(F)F)cc2)nc2c(c1=O)CN(C(=O)c1ccc(Cl)cc1)CC2 [Example 2409, 3-(2-butynyl)-6-(4-chlorobenzoyl)-2-[(S)-1-(4-trifluoromethylphenyl)ethylamino]-5,6,7,8-tetrahydro-3H-pyrido[4,3-d]pyrimidin-4-one hydrochloride]	16 nM	2440 nM
	CC#CCn1c(N[C@@H](C)c2ccc(C(F)(F)F)cc2)nc2c(c1=O)CN(C(=O)c1ccc(-c3cnco3)cc1)CC2 [Example 2410, 3-(2-butynyl)-6-(4-oxazol-5-ylbenzoyl)-2-[(S)-1-(4-trifluoromethylphenyl)ethylamino]-5,6,7,8-tetrahydro-3H-pyrido[4,3-d]pyrimidin-4-one hydrochloride]	10 nM	665 nM
	CC#CCn1c(N[C@@H](C)c2ccc(C(F)(F)F)cc2)nc2c(c1=O)CN(C(=O)c1cc3ccccn3n1)CC2 [Example 2411, 3-(2-butynyl)-6-(pyrazolo[1,5-a]pyridine-2-carbonyl)-2-[(S)-1-(4-trifluoromethylphenyl)ethylamino]-5,6,7,8-tetrahydro-3H-pyrido[4,3-d]pyrimidin-4-one hydrochloride]	20 nM	776 nM
	CC#CCn1c(N[C@@H](C)c2ccc(C(F)(F)F)cc2)nc2c(c1=O)CN(C(=O)c1ccc3c(c1)CCC(=O)N3)CC2 [Example 2412, 3-(2-butynyl)-6-(2-oxo-1,2,3,4-tetrahydro-quinoline-6-carbonyl)-2-[(S)-1-(4-trifluoromethylphenyl)ethylamino]-5,6,7,8-tetrahydro-3H-pyrido[4,3-d]pyrimidin-4-one hydrochloride]	8 nM	259 nM
	CC#CCn1c(N[C@@H](C)c2ccc(C(F)(F)F)cc2)nc2c(c1=O)CN(C(=O)c1ccc3cccnc3c1)CC2 [Example 2417, 3-(2-butynyl)-6-(quinoline-7-carbonyl)-2-[(S)-1-(4-trifluoromethylphenyl)ethylamino]-5,6,7,8-tetrahydro-3H-pyrido[4,3-d]pyrimidin-4-one dihydrochloride]	17 nM	780 nM
	COc1ccc(C(=O)N2CCc3nc(N[C@@H](C)c4ccc(C(F)(F)F)cc4)n(OC)c(=O)c3C2)c(OC)n1 [Example 2419, 6-(2,6-dimethoxypyridine-3-carbonyl)-3-methoxy-2-[(S)-1-(4-trifluoromethylphenyl)ethylamino]-5,6,7,8-tetrahydro-3H-pyrido[4,3-d]pyrimidin-4-one]	7 nM	228 nM
